Experimental data from patent EP0674651B1, “SUBSTITUTED 6-AZAANDROSTENONES” (priority 1992, dated 1994).
pIC50: −log10 of the molar value. Read-outs that look alike come from different tables or passages of the source.

What was measured:
[1] = biological target: T1, human type 2 5α-reductase (Homo sapiens, UniProt P31213); assay: 5α-reductase in vitro inhibitory activity, human type 2
T1 sequence (P31213 1-254): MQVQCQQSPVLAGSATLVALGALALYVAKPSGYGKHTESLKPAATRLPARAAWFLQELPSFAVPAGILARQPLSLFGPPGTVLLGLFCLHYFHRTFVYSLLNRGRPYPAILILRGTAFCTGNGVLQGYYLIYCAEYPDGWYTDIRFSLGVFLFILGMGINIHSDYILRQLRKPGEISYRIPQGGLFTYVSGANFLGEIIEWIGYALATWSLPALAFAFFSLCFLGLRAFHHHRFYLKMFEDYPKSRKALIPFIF

[2] = biological target: Rat Prostatic 5α-reductase; assay: 5α-reductase in vitro inhibitory activity, rat prostatic; settings: read-out: IC50 Rat Prostatic; microsomes derived from prostate tissue from the rat
Method: (§1) Microsomes were prepared by homogenization of the tissue or cells, followed by differential centrifugation of the homogenate. […] Corresponding incubations were carried out with no test compound as a control study.
The percentage of conversion of testosterone to DHT in the presence of test compounds compared to the corresponding conversion in the control study was estimated using high pressure liquid chromatography (HPLC) with radiochemical detection.

[3] = biological target: T2, human type 1 5α-reductase (Homo sapiens, UniProt P18405); assay: 5α-reductase in vitro inhibitory activity, human type 1
T2 sequence (P18405 1-259): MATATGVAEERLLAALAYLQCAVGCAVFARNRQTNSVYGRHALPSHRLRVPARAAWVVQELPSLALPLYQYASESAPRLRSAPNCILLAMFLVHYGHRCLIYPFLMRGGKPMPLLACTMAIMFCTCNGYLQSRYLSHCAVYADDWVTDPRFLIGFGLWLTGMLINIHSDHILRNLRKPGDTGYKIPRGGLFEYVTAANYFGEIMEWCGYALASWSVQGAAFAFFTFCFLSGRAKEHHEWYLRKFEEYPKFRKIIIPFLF
Method: as §1
For type 2 IC50 measurements, assay components except testosterone were preincubated for 20 minutes at pH 6.0, and following the addition of 8nM testosterone the assays were allowed to proceed for 20-40 minutes. The percentage of conversion of testosterone to DHT in the presence of test compounds compared to the corresponding conversion in the control study was estimated using high pressure liquid chromatography (HPLC) with radiochemical detection.

SMILES	pIC50 ([1]; read-out: IC50 Human Type 2, microsomes, preincubated 20 minutes at pH 6.0, 8nM testosterone, 1 mM NADPH)	pIC50 [2]	pIC50 ([3]; read-out: IC50 Human Type 1, microsomes of recombinant baculovirus infected SF9 cells, preincubated 10 minutes at pH 7.0, 100nM testosterone, 1 mM NADPH)	pIC50 [1]	pIC50 [3]
C[C@]12CC[C@H]3[C@@H](CNC4=CC(=O)CC[C@@]43C)[C@@H]1CC[C@@H]2C(=O)Nc1ccc2c(c1)OCCO2 [Compound 6, 17β-N-4-Benzodioxan-carbamoyl-6-azaandrost-4-en-3-one]	7.00 to 8.00	7.00 to 8.00	< 7.00		
CC12CCC(=O)C=C1NCC1C2CCC2(C)C(C(=O)Nc3ccc4c(c3)OCO4)CCC12 (stereo not drawn) [Compound 7, 17β-N-(3,4-Methylenedioxy)phenyl-carbamoyl-6-azaandrost-4-en-3-one]		7.00 to 8.00		> 8.00	< 7.00
CC12CCC(=O)C=C1NCC1C2CCC2(C)C(C(=O)Nc3ccccc3C(F)(F)F)CCC12 (stereo not drawn) [Compound 9, 17β-N-(2-Trifluoromethyl)phenyl-carbamoyl-6-azaandrost-4-en-3-one]		> 8.00		> 8.00	7.00 to 8.00
CC(C)(C)c1ccc(C(C)(C)C)c(NC(=O)C2CCC3C4CNC5=CC(=O)CCC5(C)C4CCC23C)c1 (stereo not drawn) [Compound 10, 17β-N-(2,5-Di-t-butyl)phenyl-carbamoyl-6-azaandrost-4-en-3-one]		7.00 to 8.00		> 8.00	> 8.00
CC12CCC(=O)C=C1NCC1C2CCC2(C)C(C(=O)NC(c3ccccc3)c3ccc(Cl)cc3)CCC12 (stereo not drawn) [Compound 11, 17β-N-(4-Chlorophenyl)(phenyl)methyl-carbamoyl-6-azaandrost-4-en-3-one]		> 8.00		> 8.00	7.00 to 8.00
Cc1ccc(CCNC(=O)C2CCC3C4CNC5=CC(=O)CCC5(C)C4CCC23C)cc1 (stereo not drawn) [Compound 12, 17β-N-(4-Methyl)phenethyl-carbamoyl-6-azaandrost-4-en-3-one]		> 8.00		> 8.00	7.00 to 8.00
CC(Cc1ccccc1)NC(=O)C1CCC2C3CNC4=CC(=O)CCC4(C)C3CCC12C (stereo not drawn) [Compound 13, 17β-N-(α-Methyl)phenethyl-carbamoyl-6-azaandrost-4-en-3-one]		> 8.00		> 8.00	7.00 to 8.00
CC(C)c1cccc(C(C)C)c1NC(=O)[C@H]1CC[C@H]2[C@@H]3CNC4=CC(=O)CC[C@]4(C)[C@H]3CC[C@]12C [Compound 14, 17β-N-(2,6-Di-i-propyl)phenyl-carbamoyl-6-azaandrost-4-en-3-one]		> 8.00		> 8.00	7.00 to 8.00
C[C@]12CC[C@H]3[C@@H](CNC4=CC(=O)CC[C@@]43C)[C@@H]1CC[C@@H]2C(=O)Nc1cccc2c1Cc1ccccc1-2 [Compound 15, 17β-N-1-Fluorenyl-carbamoyl-6-azaandrost-4-en-3-one]		> 8.00		> 8.00	< 7.00
C[C@]12CC[C@H]3[C@@H](CNC4=CC(=O)CC[C@@]43C)[C@@H]1CC[C@@H]2C(=O)NCCC(c1ccccc1)c1ccccc1 [Compound 16, 17β-N-(3,3-Diphenyl)propyl-carbamoyl-6-azaandrost-4-en-3-one]		> 8.00		> 8.00	7.00 to 8.00
C[C@]12CC[C@H]3[C@@H](CNC4=CC(=O)CC[C@@]43C)[C@@H]1CC[C@@H]2C(=O)NC(Cc1ccccc1)c1ccccc1 (stereo partly drawn) [Compound 17, 17β-N-(α-Phenyl)phenethyl-carbamoyl-6-azaandrost-4-en-3-one]		> 8.00		> 8.00	7.00 to 8.00
C[C@]12CC[C@H]3[C@@H](CNC4=CC(=O)CC[C@@]43C)[C@@H]1CC[C@@H]2C(=O)NC(c1ccc(F)cc1)c1cccs1 (stereo partly drawn) [Compound 18, 17β-N-(4-Fluorophenyl)(2-thiophene)methyl-carbamoyl-6-azaandrost-4-en-3-one]		> 8.00		> 8.00	7.00 to 8.00
C[C@]12CC[C@H]3[C@@H](CNC4=CC(=O)CC[C@@]43C)[C@@H]1CC[C@@H]2C(=O)NCc1ccco1 [Compound 19, 17β-N-(2-Furanyl)methyl-carbamoyl-6-azaandrost-4-en-3-one]		7.00 to 8.00		7.00 to 8.00	< 7.00
C[C@]12CC[C@H]3[C@@H](CNC4=CC(=O)CC[C@@]43C)[C@@H]1CC[C@@H]2C(=O)NCCc1ccccn1 [Compound 20, 17β-N-2-(2-Pyridyl)ethyl-carbamoyl-6-azaandrost-4-en-3-one]		7.00 to 8.00		7.00 to 8.00	< 7.00
CC(C)(CO)NC(=O)[C@H]1CC[C@H]2[C@@H]3CNC4=CC(=O)CC[C@]4(C)[C@H]3CC[C@]12C [Compound 21, 17β-N-(1,1-Dimethyl)-2-hydroxyethyl-carbamoyl-6-azaandrost-4-en-3-one]		< 7.00		7.00 to 8.00	< 7.00
C[C@]12CC[C@H]3[C@@H](CNC4=CC(=O)CC[C@@]43C)[C@@H]1CC[C@@H]2C(=O)NCC(c1ccccc1)c1ccccc1 [Compound 22, 17β-N-(2,2-Diphenyl)ethyl-carbamoyl-6-azaandrost-4-en-3-one]		> 8.00		> 8.00	7.00 to 8.00
C[C@]12CC[C@H]3[C@@H](CNC4=CC(=O)CC[C@@]43C)[C@@H]1CC[C@@H]2C(=O)NN(c1ccccc1)c1ccccc1 [Compound 25, 17β-N-(2,2-Diphenyl)-hydrazidyl-6-azaandrost-4-en-3-one]		> 8.00		> 8.00	7.00 to 8.00
CC(C)CC(=O)OC[C@H]1CC[C@H]2[C@@H]3CNC4=CC(=O)CC[C@]4(C)[C@H]3CC[C@]12C [Compound 27, 17β-Hydroxymethyl-(3-methylbutyrate)-6-azaandrost-4-en-3-one]		7.00 to 8.00		> 8.00	> 8.00
C[C@]12CC[C@H]3[C@@H](CNC4=CC(=O)CC[C@@]43C)[C@@H]1CC[C@@H]2COC(=O)C(c1ccccc1)c1ccccc1 [Compound 28, 17β-Hydroxymethyl-(2,2-diphenylacetate)-6-azaandrost-4-en-3-one]		> 8.00		7.00 to 8.00	7.00 to 8.00
C[C@]12CC[C@H]3[C@@H](CNC4=CC(=O)CC[C@@]43C)[C@@H]1CC[C@@H]2C(=O)NCc1ccc(C(F)(F)F)cc1 [Compound 30, 17β-N-(4-Trifluoromethylphenyl)methyl-carbamoyl-6-azaandrost-4-en-3-one]		7.00 to 8.00		> 8.00	7.00 to 8.00
C[C@]12CC[C@H]3[C@@H](CNC4=CC(=O)CC[C@@]43C)[C@@H]1CC[C@@H]2C(=O)NCC1CCCCC1 [Compound 31, 17β-methylenecyclohexyl-carbamoyl-6-azaandrost-4-en-3-one]		> 8.00		> 8.00	7.00 to 8.00
CC(C)(Cc1ccc(F)cc1)NC(=O)[C@H]1CC[C@H]2[C@@H]3CNC4=CC(=O)CC[C@]4(C)[C@H]3CC[C@]12C [Compound 32, 17β-N-(1,1-Dimethyl)-2-(4-fluorophenyl)ethyl-carbamoyl-6-azaandrost-4-en-3-one]		> 8.00		> 8.00	7.00 to 8.00
CC(C)Oc1ccc(C(=O)[C@H]2CC[C@H]3[C@@H]4CNC5=CC(=O)CC[C@]5(C)[C@H]4CC[C@]23C)cc1 [Compound 33, 17β-(1-Oxo-1 (4-isopropoxyphenyl)methyl)-6-azaandrost-4-en-3-one]		7.00 to 8.00		7.00 to 8.00	< 7.00
C[C@]12CC[C@H]3[C@@H](CNC4=CC(=O)CC[C@@]43C)[C@@H]1CC[C@@H]2C(=O)NC(C1CCCCC1)C1CCCCC1 [Compound 34, 17β-N-(Dicyclohexyl)methyl-carbamoyl-6-azaandrost-4-en-3-one]		> 8.00		> 8.00	7.00 to 8.00
